# Laboratory results reported in patent publication US20230184743A1, “SCREENING METHODS TO IDENTIFY SMALL MOLECULE COMPOUNDS THAT PROMOTE OR INHIBIT THE GROWTH OF CIRCULATING TUMOR CELLS, AND USES THEREOF” (University of Southern California, priority 2020, published 2023).
# “Also recorded” adds a separate entry of the source.
# How the values were obtained:
# Assay type in all cases: cell-based, human
# single BRx68 cells = assay: Single CTC proliferation over 24 days (AUC), BRx68 line; details: two batches, 200 μM-300 μM NAC, 24 days
# Description: Cell culture. CTC lines were previously derived from metastatic breast cancer patients. CTC lines were cultured in ultra-low attachment plates with RPMI 1640 medium, supplemented with EGF (20 ng/mL), bFGF (20 ng/mL), 1×B27 and 1× antibiotic/antimycotic, in 4% 02 and 5% CO2. Single CTCs were cultured in GravityTRAP™ ULA 96 well Plates (PerkinElmer). Wells on the edges of the plates were not used to avoid influence from evaporation. Media with fresh compounds were exchanged every 3 days by inserting pipet tips onto the platform of the wells to prevent accidentally aspirating suspended CTCs at the bottom. CTC numbers were counted manually under an inverted microscope every 6 days.
# FACS sorting. […]
# Statistical analysis. […] AUC was calculated for each well in each batch, by plotting days in the x-axis and the corresponding number of cells in the y-axis, then drawing a line to connect the number of cells from the starting count day to the next count day until the end day, and finally calculating the area under this line as the sum of areas of trapezoids. […] Statistical tests were performed using R. For absolute number of cells quantification, total number of cells at end of experiment in each well in each batch was compared between treated cells and untreated control and significance was analyzed with Student t test. […]
# [1] = system: Glutathione (GSH) in BRx68 cells; assay: Glutathione measurement; details: 300 μmol/L NAC
# Description: Glutathione measurement. A total of 1×10^6 BRx68 cells were cultured with or without 300 μmol/L NAC for 6 or 13 days. At the end of incubation periods, cells were washed in ice cold PBS, lysed in 5% 5-sulfo-salicylic acid dehydrate by vortexing and repeating cycles of freeze-thaw, then centrifuged at 14,000 rpm for 10 minutes and supernatant was transferred to clean tubes. Glutathione (GSH) was measured using a GSH Colorimetric Detection Kit (Invitrogen) following the manufacturer's instructions.
# [2] = system: single CTCs from a patient with breast cancer; assay: Culture of freshly isolated single CTCs from patients with breast cancer in NAC containing media; details: clones dying after 2 weeks in regular media
# Description: Patient samples. Ten milliliters of blood was collected from each of a total of 12 patients with breast cancer (stage IV). All experiments were performed following the ethical principles. Informed consents were signed by all patients and/or their legal guardian/s.
# Isolation of single CTCs. Single CTCs were detected and retrieved using the negative selection protocol of PIC&RUN assay. Briefly, 7.5 mL of blood was added to each AccuCyte Separation Tube (RareCyte) and tubes were centrifuged twice in a special device to collect buffy coats in 1 mL of CTC media. Buffy coats were stained with a cocktail of immune cell markers (IM) antibodies (CD45, CD14, and CD16) and Cell-Tracker green for 30 min at 37° C. Stained buffy coats were seeded on polyhema coated cyteslides and scanned semi-automatically using RareCyte fluorescence. When a CTC was detected, the Rarecyte ceramic tip needle was operated semi-automatically to pick up the cell of interest in a draw volume of 50 nL to 0.5 μL, and deposit it in a PCR tube contains 50 μL of media. PCR tubes were pulse spun, their contents were moved to a well of a 96-well GravityTRAP ultralow plate (InSphero) and plates were incubated at 37° C., 5% CO2 and 4% 02 for 3 weeks. Media was replaced every 3 to 4 days and cells were checked every week.
# NAC rescued the proliferation of freshly isolated CTCs from a patient with breast cancer. […]
compound,measurement,setting,value
"CC(=O)N[C@@H](CS)C(=O)O [NAC, N-acetyl-L-cysteine]",single CTC proliferation at various NAC concentrations,single BRx68 cells,most significant effect in promoting single CTC proliferation
same,total GSH level in NAC treated cells vs untreated control cells,[1]; day 6,44.42±5.165
same,total GSH level in NAC treated cells vs untreated control cells,[1]; day 13,not at day 13
same,proliferation of freshly isolated patient CTC clone after switch to NAC containing media,[2],rescued a CTC clone; also recorded: recovered and resumed proliferation
